# In US10369123B2, “Perk activator for the treatment of neurodegenerative diseases” (DEUTSCHES ZENTRUM FÜR NEURODEGENERATIVE ERKRANKUNGEN E.V. …, priority 2014, dated 2019):
# “Also recorded” adds a separate entry of the source.
# Assays:
# [1] = system: paired helical filament tau (AT180); assay: Immunohistochemistry of P301S mouse hippocampus; type: in vivo; settings: P301S mice, 2 mg/kg i.p. once daily for 6 weeks from 17 weeks of age, vs saline
# Description: For the efficacy trial in the late disease stage (Xu et al. 2014), P301S mice and wild type littermates received once daily i.p. injections of 2 mg/kg CCT020312 or saline from 17 to 22 weeks of age (n=12 for CCT020312 treated P301S mice, n=9 for other groups); they were analyzed with the Rotarod test in the 23rd week of age.
# Twelve hours after the last injection, animals were anesthetized by i.p. injections of pentobarbital at (100 mg/kg) and transcardially perfused with 0.1 M phosphate buffer for 2 min, then fixed for 10 min with 4% paraformaldehyde. Post-fixation of the brain was done in 4% paraformaldehyde at 4° C. for 48 h. Their brains were prepared for histological analysis, as described (Xu et al. 2014). For the immunoblot analysis in P301S mice and wild type mice were sacrificed by cervical dislocation, their brains were frozen on dry ice and stored at −80° C. for Western blot analysis.
# Fixed brains (n=6 per group) were cut into 30 μm-thickness of coronal sections with a cryomicrotome (CM3050 S, Leica). […]
# [2] = system: P301S tau transgenic mice; assay: Morris water maze; type: in vivo, mouse; settings: 2 mg/kg i.p. once daily, tested at 15 weeks of age
# Description: All animal work was conducted either on CR57BL/6 mice, obtained from Charles River Laboratories, Wilmington, Mass., USA, or on homozygous transgenic mice overexpressing human tau with the P301S mutation on a C57BL/6 background, originally developed by Michel Goedert (Xu et al. 2014), obtained by own breeding. Animals were kept at 23±1° C. under standard 12 h light-dark cycle with free access to food and water. They were handled according to the EU Council Directive 2010/63/EU, the Guide for the Care and Use of Laboratory Animals (National Research Council 2011) and the guidelines of the local institutional committee. The experiments were authorized by the local authority “Regierung von Oberbayern” under application number 55.2-1-54-2532-165-13. […]
# For the efficacy trial in the early disease stage (Xu et al. 2014), P301S mice (n=8 per group) and wild type littermates (n=9 per group) received once daily i.p. injections of 2 mg/kg CCT020312 or equivalent volumes of saline from 9 to 14 weeks of age; they were analyzed with the Morris Water Maze in the 15th week of age.
# To analyze spatial learning and memory, the Morris water maze test was performed at 15 weeks of age (n=8 per group) in a cylindrical water basin (diameter 120 cm) filled with water with a depth of 31 cm. […] Tracks of training and probe trial were recorded with the computerized Viewer2 system (Biobserve, Mannheim, Germany).
smiles,measurement,setting,value
"CCN(CC)CCC(=O)N1N=C(c2c(-c3ccccc3)c3cc(Br)ccc3[nH]c2=O)CC1c1ccc(Br)cc1 (stereo not drawn) [CCT020312, 6-bromo-3-[5-(4-bromo-phenyl)-1-(3-diethylamino-propionyl)-4,5-dihydro-1H-pyrazol-3-yl]-4-phenyl-1H-quinolin-2-one]","AT180-immunoreactivity in the hippocampal region, histology",[1],decreased
same,latency to find the hidden platform / learning curve,"[2]; P301S tau mice, vs saline",significantly improved; also recorded: steeper learning curve
same,latency to find the hidden platform / learning curve,[2]; wild type mice,did not significantly affect; also recorded: did not change the learning curve
